Results from PubChem BioAssay AID1918953 (Molecular Pharmacology Branch, DTP, NCI, 2023).

Tested on: MDA-MB-231 complex spheroid viability
Assay: Anticancer human tumor MDA-MB-231/ATCC cell line growth inhibition;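 also: drug exposure lasted 7 days starting on day 3 of spheroid growth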
Details: for IC50: curve of first compound; for viability, T/C: stronger effect = lower value
Summary of the method: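 Drug combinations with the LSD1 inhibitor iadademstat tested on tumor cells co-cultured as spheroids with endothelial cells and mesenchymal stem cells. Concentrations descended in half-log increments from clinical Cmax or 10 microM.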

[1] = second compound 0.1 µM, first compound 0.00949 µM
[2] = second compound 0.1 µM, first compound 0.03 µM
[3] = second compound 0.1 µM, first compound 0.0949 µM
[4] = second compound 0.1 µM, first compound 0.3 µM
[5] = second compound 0.316 µM, first compound 0.00949 µM
[6] = second compound 0.316 µM, first compound 0.03 µM
[7] = second compound 0.316 µM, first compound 0.0949 µM
[8] = second compound 0.316 µM, first compound 0.3 µM
[9] = second compound 1 µM, first compound 0.00949 µM
[10] = second compound 1 µM, first compound 0.03 µM
[11] = second compound 1 µM, first compound 0.0949 µM
[12] = second compound 1 µM, first compound 0.3 µM
[13] = second compound 3.16 µM, first compound 0.00949 µM
[14] = second compound 3.16 µM, first compound 0.03 µM
[15] = second compound 3.16 µM, first compound 0.0949 µM
[16] = second compound 3.16 µM, first compound 0.3 µM
[17] = second compound 10 µM, first compound 0.00949 µM
[18] = second compound 10 µM, first compound 0.03 µM
[19] = second compound 10 µM, first compound 0.0949 µM
[20] = second compound 10 µM, first compound 0.3 µM

Compound `CCN(c1cc(-c2ccc(CN3CCOCC3)cc2)cc(C(=O)NCc2c(C)cc(C)[nH]c2=O)c1C)C1CCOCC1` + NC1CCC(NC2CC2c2ccccc2)CC1 has an IC50 (second compound 0.1 µM) of over 3000 nM, an IC50 (second compound 0.316 µM) of over 3000 nM and an IC50 (second compound 1 µM) of over 3000 nM. It also gave an IC50 (second compound 3.16 µM) of over 3000 nM, an IC50 (second compound 10 µM) of 587 nM and a viability, T/C [1] of 104%. It also gave a viability, T/C [2] of 93.3%, a viability, T/C [3] of 80.4% and a viability, T/C [4] of 74.6%. It also gave a viability, T/C (second compound 0.1 µM, first compound 0.949 µM) of 70.1%, a viability, T/C (second compound 0.1 µM, first compound 3 µM) of 59.8% and a viability, T/C [5] of 98.4%. The viability, T/C [6] was 94%, the viability, T/C [7] was 81.1% and the viability, T/C [8] was 73.5%. It also gave a viability, T/C (second compound 0.316 µM, first compound 0.949 µM) of 68.4%, a viability, T/C (second compound 0.316 µM, first compound 3 µM) of 59.5% and a viability, T/C [9] of 95.2%. It also gave a viability, T/C [10] of 91.1%, a viability, T/C [11] of 75.1% and a viability, T/C [12] of 75.8%. The viability, T/C (second compound 1 µM, first compound 0.949 µM) was 64%, the viability, T/C (second compound 1 µM, first compound 3 µM) was 58.4% and the viability, T/C [13] was 78%. It also gave a viability, T/C [14] of 73.2%, a viability, T/C [15] of 65.4% and a viability, T/C [16] of 66%. For the same compound, the viability, T/C (second compound 3.16 µM, first compound 0.949 µM) was 60%, the viability, T/C (second compound 3.16 µM, first compound 3 µM) was 55.2% and the viability, T/C [17] was 55.9%. For the same compound, the viability, T/C [18] was 61.5%, the viability, T/C [19] was 54.8% and the viability, T/C [20] was 48.6%. For the same compound, the viability, T/C (second compound 10 µM, first compound 0.949 µM) was 50.5% and the viability, T/C (second compound 10 µM, first compound 3 µM) was 43.5%.
Compound `Nc1ncn(C2CC(O)C(CO)S2)c(=O)n1` (stereo not given) + NC1CCC(NC2CC2c2ccccc2)CC1 has an IC50 (second compound 0.1 µM) of 19.9 nM, an IC50 (second compound 0.316 µM) of 21.2 nM and an IC50 (second compound 1 µM) of 14.7 nM. For the same compound, the IC50 (second compound 3.16 µM) was 8.38 nM, the IC50 (second compound 10 µM) was 3.2 nM and the viability, T/C (second compound 0.1 µM, first compound 0.000949 µM) was 94.4%. The viability, T/C (second compound 0.1 µM, first compound 0.003 µM) was 78.2%, the viability, T/C [1] was 63% and the viability, T/C [2] was 44.3%. For the same compound, the viability, T/C [3] was 24.2%, the viability, T/C [4] was 12.3% and the viability, T/C (second compound 0.316 µM, first compound 0.000949 µM) was 93.2%. For the same compound, the viability, T/C (second compound 0.316 µM, first compound 0.003 µM) was 77.5%, the viability, T/C [5] was 65.1% and the viability, T/C [6] was 46.4%. The viability, T/C [7] was 21.9%, the viability, T/C [8] was 12% and the viability, T/C (second compound 1 µM, first compound 0.000949 µM) was 95.2%. For the same compound, the viability, T/C (second compound 1 µM, first compound 0.003 µM) was 77.8%, the viability, T/C [9] was 58.5% and the viability, T/C [10] was 37.7%. For the same compound, the viability, T/C [11] was 19.5%, the viability, T/C [12] was 11.2% and the viability, T/C (second compound 3.16 µM, first compound 0.000949 µM) was 77.2%. For the same compound, the viability, T/C (second compound 3.16 µM, first compound 0.003 µM) was 62.6%, the viability, T/C [13] was 49.9% and the viability, T/C [14] was 32%. It also gave a viability, T/C [15] of 17.9%, a viability, T/C [16] of 12% and a viability, T/C (second compound 10 µM, first compound 0.000949 µM) of 61.2%. For the same compound, the viability, T/C (second compound 10 µM, first compound 0.003 µM) was 50.1%, the viability, T/C [17] was 37.6% and the viability, T/C [18] was 23.8%. The viability, T/C [19] was 15.9% and the viability, T/C [20] was 12.6%.
Work on `O=C(C=Cn1cnc(-c2cc(C(F)(F)F)cc(C(F)(F)F)c2)n1)NNc1cnccn1` + NC1CCC(NC2CC2c2ccccc2)CC1 yielded an IC50 (second compound 0.1 µM) of 5.44 nM, an IC50 (second compound 0.316 µM) of 4.93 nM and an IC50 (second compound 1 µM) of 6.56 nM. The IC50 (second compound 3.16 µM) was 6.04 nM, the IC50 (second compound 10 µM) was under 3.16 nM and the viability, T/C (second compound 0.1 µM, first compound 0.00316 µM) was 61.7%. It also gave a viability, T/C (second compound 0.1 µM, first compound 0.01 µM) of 37%, a viability, T/C (second compound 0.1 µM, first compound 0.0316 µM) of 14.9% and a viability, T/C (second compound 0.1 µM, first compound 0.1 µM) of 10.4%. For the same compound, the viability, T/C (second compound 0.1 µM, first compound 0.316 µM) was 9%, the viability, T/C (second compound 0.1 µM, first compound 1 µM) was 6.32% and the viability, T/C (second compound 0.316 µM, first compound 0.00316 µM) was 58.9%. It also gave a viability, T/C (second compound 0.316 µM, first compound 0.01 µM) of 36.2%, a viability, T/C (second compound 0.316 µM, first compound 0.0316 µM) of 15% and a viability, T/C (second compound 0.316 µM, first compound 0.1 µM) of 11.4%. It also gave a viability, T/C (second compound 0.316 µM, first compound 0.316 µM) of 7.56%, a viability, T/C (second compound 0.316 µM, first compound 1 µM) of 5.07% and a viability, T/C (second compound 1 µM, first compound 0.00316 µM) of 64.6%. It also gave a viability, T/C (second compound 1 µM, first compound 0.01 µM) of 41.7%, a viability, T/C (second compound 1 µM, first compound 0.0316 µM) of 15.4% and a viability, T/C (second compound 1 µM, first compound 0.1 µM) of 11.4%. The viability, T/C (second compound 1 µM, first compound 0.316 µM) was 8.75%, the viability, T/C (second compound 1 µM, first compound 1 µM) was 6.54% and the viability, T/C (second compound 3.16 µM, first compound 0.00316 µM) was 56%. It also gave a viability, T/C (second compound 3.16 µM, first compound 0.01 µM) of 45.4%, a viability, T/C (second compound 3.16 µM, first compound 0.0316 µM) of 13.9% and a viability, T/C (second compound 3.16 µM, first compound 0.1 µM) of 11.2%. It also gave a viability, T/C (second compound 3.16 µM, first compound 0.316 µM) of 8.03%, a viability, T/C (second compound 3.16 µM, first compound 1 µM) of 6.06% and a viability, T/C (second compound 10 µM, first compound 0.00316 µM) of 49.2%. It also gave a viability, T/C (second compound 10 µM, first compound 0.01 µM) of 34.5%, a viability, T/C (second compound 10 µM, first compound 0.0316 µM) of 14% and a viability, T/C (second compound 10 µM, first compound 0.1 µM) of 9.12%. It also gave a viability, T/C (second compound 10 µM, first compound 0.316 µM) of 7.43% and a viability, T/C (second compound 10 µM, first compound 1 µM) of 5.83%.
